Two molecules from patent US20230416299A1, “COMPOUND AND METHOD FOR THE TREATMENT AND DIAGNOSIS OF NEURODEGENERATIVE CONDITIONS” (Swansea University, priority 2013, published 2023) can be followed below.

The target in one assay is T1, Lxrα (Homo sapiens, UniProt Q13133).
T1 construct: expressed in transfected cells; host or cells: SN4741 mouse neuronal cell line
T1 sequence (Q13133 1-447): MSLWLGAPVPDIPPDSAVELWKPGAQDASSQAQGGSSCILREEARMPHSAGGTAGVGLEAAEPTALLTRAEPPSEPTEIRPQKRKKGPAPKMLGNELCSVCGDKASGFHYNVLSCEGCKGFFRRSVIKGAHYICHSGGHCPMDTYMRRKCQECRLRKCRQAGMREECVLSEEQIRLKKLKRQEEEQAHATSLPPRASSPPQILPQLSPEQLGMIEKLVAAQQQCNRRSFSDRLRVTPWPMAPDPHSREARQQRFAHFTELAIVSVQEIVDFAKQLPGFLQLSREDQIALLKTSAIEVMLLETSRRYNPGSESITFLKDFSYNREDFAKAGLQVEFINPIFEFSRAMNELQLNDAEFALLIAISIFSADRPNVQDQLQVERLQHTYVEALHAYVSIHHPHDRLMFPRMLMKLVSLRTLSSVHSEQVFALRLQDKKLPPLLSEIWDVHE
The experiment in a line: Lxr-responsive luciferase reporter assay (Lxre + Lxrα) in SN4741 neural cells. Type of assay: cell-based, mouse. Conditions: for Lxrα activation, luciferase activity: 10 μM, 24 h. The source says:
(§1) Luciferase Reporter Assay.
In general terms: Reporter assays use an easily measured gene product as a stand-in for the process of interest.

Assay [1] concerns mouse E11.5 brain primary cultures. The experiment in a line: Mouse E11.5 brain primary cultures (Islet1+, active caspase 3+, BrdU, Nkx6.1 counts). Type of assay: cell-based. Conditions: for Number of Islet1+ cells: wild type cultures, 3 DIV; for Effect on Islet1+ cells with Lxr antagonist GGPP / Number of active caspase-3+ cells: wt cultures; for Number of active caspase-3+ cells: 10 μM 3β,7α-diHCA, 3βH,7O-CA, 25-HC, low concentrations of 3β,7β-diHCA, 3β-HCA. The procedure: Primary Brain Cultures. Brains from E11.5 mice were manually dissected, plated on poly-D-lysine (150,000 cells/cm2) and grown in serum-free N2 media consisting of 1:1 mixture of F12 and DMEM with 10 ng/mL insulin, 100 μg/mL apo-transferrin, 100 μM putrescine, 20 nM progesterone, 30 nM selenium, 6 mg/mL glucose, and 1 mg/mL BSA. Cells were treated for 3 days in vitro (DIV) with the compounds of interest, fixed with 4% PFA and processed for staining using appropriate antibodies.
For BrdU analysis, cells were treated with BrdU one hour after plating and media was replaced with fresh medium after 16 h. After a further 2 days in culture, cells were treated for 30 min with 2N HCl and then immunocytochemistry was performed to evaluate the number of double BrdU+;Islet1+ cells (a measure of motor neuron neurogenesis). Hoechst staining was performed by permeabilizing cells with a 0.3% Triton-X 100/PBS solution for 5 min followed by incubation with Hoechst 33258 (Sigma) for 10 min.
Antibodies and Detection Procedures. Cells were fixed in 4% PFA, washed in PBS and blocked in 5% normal goat serum/PBS for 1 h at room temperature. Primary antibodies were diluted in PBS (pH 7.4), 0.3% Triton X-100, 1% BSA and incubations were carried out overnight at +4° C. or at room temperature for 2 h. The antibodies used were anti-: BrdU (1:400; Abeam), Islet-1 (1:100; Developmental Studies Hybridoma Bank), cleaved caspase-3 (Asp175) (1:100; Cell Signaling Technology), tyrosine hydroxylase (TH;1:1000; Pel-Freeze) GABA (1:1,000; Sigma), Brn3a (1:250; Millipore), Nkx6.1 (1:200; Novus Biologicals), choline acetyltransferase (ChAT; 1:500; Millipore) and appropriate secondary antibodies (Jackson ImmunoResearch or Alexa). Cells positive for the corresponding marker were counted directly at the microscope at a magnification of 20 x. Cells were counted in every well, in eight consecutive fields (going from one side of the well to the other, passing through the center), in three different wells per experiment and in three different experiments per condition. Random pictures of the wells were taken for every condition to document the result, and representative pictures were subsequently selected to represent the quantitative data. Photos were acquired with a Zeiss Axioplan microscope and a Hamamatsu camera C4742-95 using the Openlab software.

In assay [2] the test system is Islet-1:GFP transgenic zebrafish embryos. Type of assay: in vivo. Conditions: 10 μM. The procedure:
Quantitative PCR. Total RNA was extracted from SN4741 cells and zebrafish treated with the compounds of interest using the RNeasy Mini Kit (Qiagen), 1 μg was treated with RQ1 RNase-free DNase (Promega) and reverse transcribed using Superscript II Reverse Transcriptase (Invitrogen) and random primers (Invitrogen) (RT+ reaction). Parallel reactions without reverse transcriptase enzyme were done as a control (RT− reaction), and Sybergreen real-time quantitative PCR assays were performed. Expression levels were obtained by normalization with the value of the housekeeping gene encoding actin obtained for every sample in parallel assays.
Zebrafish Strain and Mainrenance Zebrafish were raised on a 14/10 h day/night cycle and were kept at 28.5° C. Islet-1:GFP transgenic embryos were obtained via natural spawning and staged in hours or days post fertilization (hpf and dpf) according to Kimmel et al). Embryos older than 24 hpf were treated with 0.03% phenylthiourea (PTU) to inhibit pigmentation. MO injections were performed using splice site specific zebrafish 1xr MO. MO injected embryos were immediately dechorionated and transferred to a 96 well plate and exposed to dimethyl sulfoxide (DMSO) treated or ligand treated medium.
Compound Exposure. Islet-1:GFP embryos were collected by natural mating and immediately (at 1 cell stage) dechorionated and transferred to a 96 well plate. Each of the compounds tested were obtained as 10 mM stock and diluted in embryo medium to a final concentration of 10 μM, and 200 μL was added to each well. DMSO or propan-2-ol treated embryo medium was taken as control. Ligand solutions were replaced every 12 h with fresh ligand solution prepared in PTU treated embryo medium. Embryos were collected at 48 hpf, fixed for 4 h at room temperature with 4% paraformaldehyde and then washed and kept in PBST. Immunocytochemistry was performed using an anti-GFP antibody and fluorescence was viewed and photographed using a Zeiss Axioplan compound microscope and a Zeiss Axiocam digital camera.

The target in a further assay is T2, Lxrβ (Homo sapiens, UniProt P55055).
T2 construct: expressed in transfected cells; host or cells: SN4741 mouse neuronal cell line
T2 sequence (P55055 1-460): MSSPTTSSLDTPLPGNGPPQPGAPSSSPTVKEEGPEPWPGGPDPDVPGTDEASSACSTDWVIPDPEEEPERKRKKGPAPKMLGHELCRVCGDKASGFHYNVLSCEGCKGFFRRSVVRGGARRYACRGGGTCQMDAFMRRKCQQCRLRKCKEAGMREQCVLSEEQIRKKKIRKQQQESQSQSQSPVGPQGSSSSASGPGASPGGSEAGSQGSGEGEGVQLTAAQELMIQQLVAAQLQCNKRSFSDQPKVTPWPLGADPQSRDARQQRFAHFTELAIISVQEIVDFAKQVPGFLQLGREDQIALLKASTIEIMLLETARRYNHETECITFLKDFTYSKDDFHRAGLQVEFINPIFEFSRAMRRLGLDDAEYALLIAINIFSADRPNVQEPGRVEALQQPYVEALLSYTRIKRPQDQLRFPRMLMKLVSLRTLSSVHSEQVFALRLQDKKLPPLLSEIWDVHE
The experiment in a line: Lxr-responsive luciferase reporter assay (Lxre + Lxrβ) in SN4741 neural cells. The format is cell-based, mouse. Conditions: SN4741 cells, 10 μM, 24 h.
Excerpt: as §1

Take `C[C@H](CCCC(C)(C)O)[C@H]1CC[C@H]2[C@@H]3CC=C4C[C@@H](O)CC[C@]4(C)[C@H]3CC[C@]12C` [25-HC, cholest-5-ene-3β,25-diol]: the “Lxrα activation, luciferase activity” value on Lxrα was “activate Lxr”. The “Lxr luciferase activity with the Lxr antagonist GGPP” value at Lxrα (metabolite 10 μM + GGPP 10 μM) was “similarly blocked”. For the same molecule, the “Effect on active caspase-3+ cells with GGPP” value in assay [1] (GGPP 10 μM, 3β,7β-diHCA, 3β-HCA at 2 μM) is on record as “GGPP sensitive manner”. The “Effect on Islet1+ cells in cultures from Lxrα−/−β−/− mice” value in assay [1] (Lxrα−/−β−/− cultures) is reported as “blocked in cultures from Lxrα−/−β−/−animals”. In addition, in assay [1], the “Number of Islet1+ cells” value is recorded as “increase the number of Islet1+ oculomotor cells” and the “Number of active caspase-3+ cells” value was “reduced the number of active caspase-3+ cells”. Further, the “Effect on Islet1+ cells with Lxr antagonist GGPP” value in assay [1] (GGPP 10 μM) is reported as “inhibited by the Lxr antagonist GGPP”. Further, the “Islet-GFP expression in cranial nerves” value in assay [2] (48 hpf) was “modest increase in the levels of Islet-1”. Further, the “Lxrβ activation, luciferase activity” value at Lxrβ is “activate Lxr”.

For `CC(CCC[C@@H](C)[C@H]1CC[C@H]2[C@@H]3C(=O)C=C4C[C@@H](O)CC[C@]4(C)[C@H]3CC[C@]12C)C(=O)O` (stereo partly drawn) [3βH, 7O-CA, 3β-hydroxy-7-oxocholest-5-en-26-oic acid], at Lxrα, the “Lxrα activation, luciferase activity” value is “have the ability to activate both Lxrs”. In assay [1], the “Number of other midbrain neurons (TH+ dopamine, GABAergic, red nucleus)” value is listed as “did not affect the number of other midbrain neurons”; the “Number of Islet1+ cells” value is listed as “increased the number of Islet1+ oculomotor cells in the cultures”; the “Number of active caspase-3+ cells” value is “did not affect the number of active caspase-3+ cells”. Also, in assay [1] (GGPP 10 μM), the “Effect on Islet1+ cells with Lxr antagonist GGPP” value is reported as “blocked by the Lxr antagonist GGPP”. Besides, in assay [2], the “Islet-1 mRNA and protein level (qPCR, western blot)” value is “increase in the level of Islet-1 mRNA and protein”; the “abca1 mRNA expression in vivo” value is “enhanced expression of abca1”. Also, in assay [2] (48 hpf), the “Islet-GFP expression in cranial nerves” value is recorded as “increased Islet-GFP expression” and the “Number of Islet1+ cells in cranial nerves (III, IV, V, VII, X)” value is “no significant effect on the number of Islet1+ cells”. The “Islet-GFP levels after lxr morpholino (MO) injection” value in assay [2] (lxr MO vs control scrambled MO) was “abolished the in vivo increase in Islet-GFP levels”. Besides, on Lxrβ, the “Lxrβ activation, luciferase activity” value is “have the ability to activate both Lxrs”.
